Results as given in ChEMBL document CHEMBL1649501, “Integration of pharmacokinetic and pharmacodynamic indices of orbifloxacin in beagle dogs after a single intravenous and intramuscular administration” (Antimicrob Agents Chemother, 2009).
In brackets after ≈: the same amount, converted by molar mass.

Experiments:
[1] = Ratio of AUC (0 to 24 hrs) to MIC in Beagle dog infected with Staphylococcus intermedius at 2.5 mg/kg, iv; assay type: functional
[2] = Cmax in Beagle dog at 2.5 mg/kg, im; assay type: ADME, organism-based, Canis lupus familiaris; set-up: dose 2.5 mg/kg, route intramuscular; conditions: in vivo
[3] = T>MIC in Beagle dog infected with Escherichia coli at 2.5 mg/kg, im; assay type: functional; conditions: route intramuscular
Proteus mirabilis [4] = assay: Antibacterial activity against Proteus mirabilis after 30 hrs by broth microdilution method; assay type: functional, organism-based
[5] = Ratio of AUC (0 to 24 hrs) to MIC for bacteriostatic action in Beagle dog infected with Staphylococcus intermedius clinical isolate at 2.5 mg/kg, im; assay type: functional; conditions: route intramuscular
[6] = T>MIC in Beagle dog infected with Staphylococcus intermedius at 2.5 mg/kg, iv; assay type: functional
Proteus mirabilis [7] = assay: Antibacterial activity against Proteus mirabilis by broth microdilution method; assay type: functional
[8] = Ratio of Cmax to MIC in Beagle dog infected with Proteus mirabilis at 2.5 mg/kg, im; assay type: functional; conditions: route intramuscular
[9] = system: Staphylococcus intermedius; assay: Antibacterial activity against Staphylococcus intermedius after 30 hrs by broth microdilution method; assay type: functional, organism-based
[10] = Apparent volume of distribution in Beagle dog at 2.5 mg/kg, iv; assay type: ADME, organism-based, Canis lupus familiaris; set-up: dose 2.5 mg/kg, route intravenous; conditions: in vivo, read-out: Vz
Staphylococcus aureus [11] = assay: Antibacterial activity against Staphylococcus aureus after 30 hrs by broth microdilution method; assay type: functional, organism-based
[12] = Bioavailability in Beagle dog at 2.5 mg/kg, im; assay type: ADME, organism-based, Canis lupus familiaris; conditions: in vivo
[13] = T>MIC in Beagle dog infected with Staphylococcus aureus at 2.5 mg/kg, im; assay type: functional; conditions: route intramuscular
[14] = Ratio of AUC (0 to 24 hrs) to MIC in Beagle dog infected with Staphylococcus aureus at 2.5 mg/kg, im; assay type: functional; conditions: route intramuscular
[15] = Ratio of Cmax to MIC in Beagle dog infected with Staphylococcus intermedius at 2.5 mg/kg, im; assay type: functional; conditions: route intramuscular
[16] = Terminal half life in Beagle dog at 2.5 mg/kg, im; assay type: ADME, organism-based, Canis lupus familiaris; set-up: dose 2.5 mg/kg, route intramuscular; conditions: in vivo, read-out: beta t1/2 (converted)
[17] = Ratio of AUC (0 to 24 hrs) to MIC for bactericidal action in Beagle dog infected with Staphylococcus intermedius clinical isolate at 2.5 mg/kg, im; assay type: functional; conditions: route intramuscular
Escherichia coli [18] = assay: Antibacterial activity against Escherichia coli after 30 hrs by broth microdilution method; assay type: functional, organism-based
[19] = Ratio of AUC (0 to 24 hrs) to MIC50 in Beagle dog infected with Staphylococcus intermedius clinical isolate at 2.5 mg/kg, im; assay type: functional; conditions: route intramuscular
[20] = Ratio of AUC (0 to 24 hrs) to MIC in Beagle dog infected with Proteus mirabilis at 2.5 mg/kg, iv; assay type: functional
[21] = T>MIC in Beagle dog infected with Proteus mirabilis at 2.5 mg/kg, iv; assay type: functional
[22] = Mean residence time (0 to infinity) in Beagle dog at 2.5 mg/kg, im; assay type: ADME, organism-based, Canis lupus familiaris; set-up: dose 2.5 mg/kg, route intramuscular; conditions: in vivo
[23] = system: Staphylococcus intermedius; assay: Antibacterial activity against Staphylococcus intermedius by broth microdilution method; assay type: functional
[24] = Volume of distribution at steady state in Beagle dog at 2.5 mg/kg, iv; assay type: ADME, organism-based, Canis lupus familiaris; set-up: dose 2.5 mg/kg, route intravenous; conditions: in vivo
Escherichia coli [25] = assay: Antibacterial activity against Escherichia coli by broth microdilution method; assay type: functional
[26] = Ratio of AUC (0 to 24 hrs) to MIC in Beagle dog infected with Staphylococcus aureus at 2.5 mg/kg, iv; assay type: functional
[27] = Ratio of AUC (0 to 24 hrs) to MIC in Beagle dog infected with Staphylococcus intermedius at 2.5 mg/kg, im; assay type: functional; conditions: route intramuscular
[28] = AUC (0 to infinity) in Beagle dog at 2.5 mg/kg, im; assay type: ADME, organism-based, Canis lupus familiaris; set-up: time infinity, dose 2.5 mg/kg, route intramuscular; conditions: plasma
[29] = Ratio of AUC (0 to 24 hrs) to MIC in Beagle dog infected with Proteus mirabilis at 2.5 mg/kg, im; assay type: functional; conditions: route intramuscular
[30] = Ratio of AUC (0 to 24 hrs) to MIC for bacterial elimination in Beagle dog infected with Staphylococcus intermedius clinical isolate at 2.5 mg/kg, im; assay type: functional; conditions: route intramuscular
[31] = Mean residence time (0 to 24 hrs) in Beagle dog at 2.5 mg/kg, iv; assay type: ADME, organism-based, Canis lupus familiaris; set-up: dose 2.5 mg/kg, route intravenous; conditions: in vivo
Staphylococcus aureus [32] = assay: Antibacterial activity against Staphylococcus aureus ATCC 29213 by broth microdilution method; assay type: functional
[33] = system: Staphylococcus intermedius; assay: Antibacterial activity against Staphylococcus intermedius clinical isolate infected in Beagle dog assessed as bacterial load at 2.5 mg/kg, im after 24 hrs; assay type: functional; conditions: route intramuscular
Staphylococcus aureus [34] = assay: Antibacterial activity against Staphylococcus aureus by broth microdilution method; assay type: functional
[35] = AUC (0 to 24 hrs) in Beagle dog at 2.5 mg/kg, im; assay type: ADME, organism-based, Canis lupus familiaris; set-up: time < 24 hr, dose 2.5 mg/kg, route intramuscular; conditions: plasma
[36] = Mean residence time (0 to 24 hrs) in Beagle dog at 2.5 mg/kg, im; assay type: ADME, organism-based, Canis lupus familiaris; set-up: dose 2.5 mg/kg, route intramuscular; conditions: in vivo
[37] = Ratio of Cmax to MIC in Beagle dog infected with Staphylococcus aureus at 2.5 mg/kg, im; assay type: functional; conditions: route intramuscular
[38] = Elimination rate constant in Beagle dog at 2.5 mg/kg, im; assay type: ADME, organism-based, Canis lupus familiaris; set-up: dose 2.5 mg/kg, route intramuscular; conditions: in vivo
[39] = T>MIC in Beagle dog infected with Staphylococcus aureus at 2.5 mg/kg, iv; assay type: functional
[40] = Elimination rate constant in Beagle dog at 2.5 mg/kg, iv; assay type: ADME, organism-based, Canis lupus familiaris; set-up: dose 2.5 mg/kg, route intravenous; conditions: in vivo
[41] = T>MIC in Beagle dog infected with Staphylococcus intermedius at 2.5 mg/kg, im; assay type: functional; conditions: route intramuscular
[42] = Terminal half life in Beagle dog at 2.5 mg/kg, iv; assay type: ADME, organism-based, Canis lupus familiaris; set-up: dose 2.5 mg/kg, route intravenous; conditions: in vivo, read-out: beta t1/2 (converted)
[43] = Tmax in Beagle dog at 2.5 mg/kg, im; assay type: ADME, organism-based, Canis lupus familiaris; set-up: dose 2.5 mg/kg, route intramuscular; conditions: in vivo
[44] = T>MIC in Beagle dog infected with Proteus mirabilis at 2.5 mg/kg, im; assay type: functional; conditions: route intramuscular
[45] = Ratio of AUC (0 to 24 hrs) to MIC in Beagle dog infected with Escherichia coli at 2.5 mg/kg, im; assay type: functional; conditions: route intramuscular
[46] = Clearance in Beagle dog at 2.5 mg/kg, iv; assay type: ADME, organism-based, Canis lupus familiaris; set-up: dose 2.5 mg/kg, route intravenous; conditions: in vivo
[47] = AUC (0 to infinity) in Beagle dog at 2.5 mg/kg, iv; assay type: ADME, organism-based, Canis lupus familiaris; set-up: time infinity, dose 2.5 mg/kg, route intravenous; conditions: plasma
[48] = T>MIC in Beagle dog infected with Escherichia coli at 2.5 mg/kg, iv; assay type: functional
[49] = Ratio of Cmax to MIC in Beagle dog infected with Escherichia coli at 2.5 mg/kg, im; assay type: functional; conditions: route intramuscular
[50] = AUC (0 to 24 hrs) in Beagle dog at 2.5 mg/kg, iv; assay type: ADME, organism-based, Canis lupus familiaris; set-up: time < 24 hr, dose 2.5 mg/kg, route intravenous; conditions: plasma
[51] = Mean residence time (0 to infinity) in Beagle dog at 2.5 mg/kg, iv; assay type: ADME, organism-based, Canis lupus familiaris; set-up: dose 2.5 mg/kg, route intravenous; conditions: in vivo
Canis familiaris = assay: Mean absorption time in Beagle dog at 2.5 mg/kg, im; assay type: ADME, organism-based, Canis lupus familiaris; set-up: dose 2.5 mg/kg, route intramuscular; conditions: in vivo
[52] = Ratio of AUC (0 to 24 hrs) to MIC in Beagle dog infected with Escherichia coli at 2.5 mg/kg, iv; assay type: functional

C[C@@H]1CN(c2c(F)c(F)c3c(=O)c(C(=O)O)cn(C4CC4)c3c2F)C[C@H](C)N1 [ORBIFLOXACIN]
RatioAUC/MIC [1]: 32.3 | Cmax [2]: 1150 ng/mL | T>MIC [3]: 21.3 h | Activity (Proteus mirabilis [4]): Dose-dependent effect | RatioAUC/MIC [5]: 26.7 | T>MIC [6]: 8.75 h | MIC (Proteus mirabilis [7]): 0.5 µg/mL (≈ 1.26 µM) | Ratio [8]: 2.3 | Activity [9]: Dose-dependent effect | Vd [10]: 1.95 L/kg | Activity (Staphylococcus aureus [11]): Dose-dependent effect | bioavailability [12]: 100% | T>MIC [13]: 9.15 h | RatioAUC/MIC [14]: 31.1 | Ratio [15]: 4.61 | half-life [16]: 3.95 h | RatioAUC/MIC [17]: 31.8 | Activity (Escherichia coli [18]): Dose-dependent effect | Ratio [19]: 29 | RatioAUC/MIC [20]: 16.1 | T>MIC [21]: 5.6 h | MRT inf [22]: 5.69 h | MIC [23]: 0.25 µg/mL (≈ 0.632 µM) | Vd [24]: 1.61 L/kg | MIC (Escherichia coli [25]): 0.06 µg/mL (≈ 0.152 µM) | RatioAUC/MIC [26]: 32.3 | RatioAUC/MIC [27]: 31.1 | AUC(0-inf) [28]: 8490 ng·h/mL | RatioAUC/MIC [29]: 15.5 | RatioAUC/MIC [30]: 40 | MRT last [31]: 4.71 h | MIC (Staphylococcus aureus [32]): 0.5 µg/mL (≈ 1.26 µM) | CFU/ml [33]: 2.06 | MIC (Staphylococcus aureus [34]): 0.25 µg/mL (≈ 0.632 µM) | AUC(0-t) at 24 h [35]: 8370 ng·h/mL | MRT last [36]: 5.31 h | Ratio [37]: 4.61 | k el [38]: 4.72e-05 s⁻¹ | T>MIC [39]: 8.75 h | k el [40]: 4.72e-05 s⁻¹ | T>MIC [41]: 9.15 h | half-life [42]: 4.23 h | Tmax [43]: 1.15 h | T>MIC [44]: 6.5 h | RatioAUC/MIC [45]: 129.8 | clearance [46]: 5.17 mL/min/kg | AUC(0-inf) [47]: 8210 ng·h/mL | T>MIC [48]: 21.1 h | Ratio [49]: 19.1 | AUC(0-t) at 24 h [50]: 8070 ng·h/mL | MRT inf [51]: 5.13 h | MAT (Canis familiaris): 0.51 h | RatioAUC/MIC [52]: 134.6
